The text below walks through data of US8853230B2, “Inhibitors of JAK” (Portola Pharmaceuticals, Inc., priority 2009, dated 2014).

Format in all cases: biochemical
For assay [1], the target named is T1, TYK2 (Homo sapiens, UniProt P29597).
T1 construct: 5 μl of catalytic domain recombinant Kinase enzyme+Tyr peptide substrate (Invitrogen, Calif.); purchased Invitrogen
T1 sequence (P29597 897-1176 limits assumed): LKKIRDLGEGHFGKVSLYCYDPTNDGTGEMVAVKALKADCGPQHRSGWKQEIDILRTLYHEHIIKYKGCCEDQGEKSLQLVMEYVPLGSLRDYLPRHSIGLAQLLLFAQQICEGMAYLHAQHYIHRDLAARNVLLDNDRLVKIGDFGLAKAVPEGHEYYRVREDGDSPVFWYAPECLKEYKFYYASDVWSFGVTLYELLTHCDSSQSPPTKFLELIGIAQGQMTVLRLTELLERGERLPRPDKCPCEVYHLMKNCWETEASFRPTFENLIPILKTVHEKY
Put plainly: Z'-LYTE kinase assay, TYK2 tyrosine phosphorylation activity. In short, it runs like this: (§1)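 FRET read-out (ex 400 nm, em 445 and 520 nm) after protease cleavage of non-phosphorylated Tyr6 peptide. Kinase step: catalytic-domain enzyme, peptide, ATP and compound, 1 h at RT, 1% DMSO. IC50 from a 4-parameter logistic fit of percent phosphorylation versus uninhibited control.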

The target in assay [2] is T2, JAK3 (Homo sapiens, UniProt P52333).
T2 construct: 5 μl of catalytic domain recombinant Kinase enzyme+Tyr peptide substrate (Invitrogen, Calif.); purchased Invitrogen
T2 sequence (P52333 822-1111 limits assumed): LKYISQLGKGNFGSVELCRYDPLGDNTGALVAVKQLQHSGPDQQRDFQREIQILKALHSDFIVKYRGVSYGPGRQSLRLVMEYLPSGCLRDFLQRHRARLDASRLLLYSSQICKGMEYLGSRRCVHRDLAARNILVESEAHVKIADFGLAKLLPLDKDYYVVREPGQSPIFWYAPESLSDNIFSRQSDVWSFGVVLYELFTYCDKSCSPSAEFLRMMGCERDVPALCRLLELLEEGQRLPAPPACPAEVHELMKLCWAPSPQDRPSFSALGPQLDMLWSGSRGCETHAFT
Put plainly: Z'-LYTE kinase assay, JAK3 tyrosine phosphorylation activity. In short, it runs like this:
as §1

For assay [3], the target named is T3, JAK2 (Homo sapiens, UniProt O60674).
T3 construct: 5 μl of catalytic domain recombinant Kinase enzyme+Tyr peptide substrate (Invitrogen, Calif.); purchased Invitrogen
T3 sequence (O60674 849-1124 limits assumed): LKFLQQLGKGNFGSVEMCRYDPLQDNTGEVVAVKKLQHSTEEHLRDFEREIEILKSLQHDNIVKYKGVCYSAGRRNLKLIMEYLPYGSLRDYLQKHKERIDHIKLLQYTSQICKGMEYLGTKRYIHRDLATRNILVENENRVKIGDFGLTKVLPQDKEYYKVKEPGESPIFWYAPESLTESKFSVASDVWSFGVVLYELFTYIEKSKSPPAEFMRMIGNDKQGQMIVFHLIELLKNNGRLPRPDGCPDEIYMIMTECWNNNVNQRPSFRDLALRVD
Put plainly: Z'-LYTE kinase assay, JAK2 tyrosine phosphorylation activity. In short, it runs like this: as §1

The target in assay [4] is T4, JAK1 (Homo sapiens, UniProt P23458).
T4 construct: 5 μl of catalytic domain recombinant Kinase enzyme+Tyr peptide substrate (Invitrogen, Calif.); purchased Invitrogen
T4 sequence (P23458 875-1153 limits assumed): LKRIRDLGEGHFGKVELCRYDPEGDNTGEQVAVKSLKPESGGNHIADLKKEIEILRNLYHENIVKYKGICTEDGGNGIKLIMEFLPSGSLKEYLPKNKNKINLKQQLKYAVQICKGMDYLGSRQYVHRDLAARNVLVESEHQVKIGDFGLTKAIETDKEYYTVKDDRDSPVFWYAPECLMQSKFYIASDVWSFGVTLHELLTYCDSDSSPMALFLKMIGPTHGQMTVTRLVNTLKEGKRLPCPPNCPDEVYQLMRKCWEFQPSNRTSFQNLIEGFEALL
Put plainly: Z'-LYTE kinase assay, JAK1 tyrosine phosphorylation activity. The conditions noted are these: read-out: JAK 1 IC50. In outline: as §1

As to `NC(=O)c1cnc(Nc2cccc(NC(=O)N3CCCC3)c2)nc1NCC(F)(F)F` [Example 136, 2-(3-(pyrrolidine-1-carboxamido)phenylamino)-4-(2,2,2-trifluoroethylamino)pyrimidine-5-carboxamide], the IC50 in assay [1], in assay [2], in assay [3] and in assay [4] was 10 to 100 nM each time.

Take `COC[C@@H]1CCCN1C(=O)Nc1cccc(Nc2ncc(C(N)=O)c(N[C@H](C)c3ccccc3)n2)c1` [Example 138, 2-(3-((S)-2-(methoxymethyl)pyrrolidine-1-carboxamido)phenylamino)-4-((R)-1-phenylethylamino)pyrimidine-5-carboxamide]: the IC50 in assay [1] is 10 to 100 nM; in assay [2], 1 to 10 nM; in assay [3] it was 10 to 100 nM; in assay [4] it was 100 to 1000 nM.

Regarding `CN(C(=O)N1CCCC1)c1cccc(Nc2ncc(C(N)=O)c(NCc3ccccc3)n2)c1` [Example 141, 4-(benzylamino)-2-(3-(N-methylpyrrolidine-1-carboxamido)phenylamino)pyrimidine-5-carboxamide], the IC50 in assay [1] was in the range of 100 to 1000 nM; in assay [2] it was 1 to 10 nM; in assay [3] it was 10 to 100 nM; in assay [4], 100 to 1000 nM.

`CC[C@H](C)Nc1nc(Nc2cccc(NC(=O)COC)c2)ncc1C(N)=O` [Example 144, (S)-4-(sec-butylamino)-2-(3-(2-methoxyacetamido)phenylamino)pyrimidine-5-carboxamide]: the IC50 in assay [1] is 10 to 100 nM; in assay [2] it was 10 to 100 nM; in assay [3], 100 to 1000 nM; in assay [4] it was 100 to 1000 nM.

For the compound `CC[C@H](C)Nc1nc(Nc2cccc(NC(=O)N3CCCC3)c2)ncc1C(N)=O` [Example 145], the IC50 lay within 10 to 100 nM in assay [1], 1 to 10 nM in assay [2], 10 to 100 nM in assay [3] and 10 to 100 nM in assay [4].

Turning to `C[C@@H]1CCCN1C(=O)Nc1cccc(Nc2ncc(C(N)=O)c(N[C@H](C)c3ccccc3)n2)c1` [Example 148, 2-(3-((R)-2-methylpyrrolidine-1-carboxamido)phenylamino)-4-((R)-1-phenylethylamino)pyrimidine-5-carboxamide], the IC50 in assay [1] lay in the range of 10 to 100 nM; in assay [2], 1 to 10 nM; in assay [3], 10 to 100 nM; in assay [4], 100 to 1000 nM.

Take `COCC(=O)N(c1cccc(Nc2ncc(C(N)=O)c(NCc3ccccc3)n2)c1)C1CC1` [Example 150, 4-(benzylamino)-2-(3-(N-cyclopropyl-2-methoxyacetamido)phenylamino)pyrimidine-5-carboxamide]: the IC50 was 100 to 1000 nM in assay [1], 100 to 1000 nM in assay [2], above 1000 nM in assay [3] and above 1000 nM in assay [4].

`NC(=O)c1cnc(Nc2cccc(N(C(=O)C3CC3)C3CC3)c2)nc1NCc1ccccc1` [Example 151, 4-(benzylamino)-2-(3-(N-cyclopropylcyclopropanecarboxamido)phenylamino)pyrimidine-5-carboxamide]: the IC50 in assay [1], in assay [2], in assay [3] and in assay [4] was above 1000 nM in each case.

Regarding `CC(=O)Nc1cccc(Nc2ncc(C(N)=O)c(N[C@@H](c3ccccc3)C3CC3)n2)c1` [Example 152, (R)-2-(3-acetamidophenylamino)-4-(cyclopropyl(phenyl)methylamino)pyrimidine-5-carboxamide], the half-inhibitory concentration (IC50) in assay [1] was in the range of 100 to 1000 nM; in assay [2] it was 10 to 100 nM; in assay [3], 100 to 1000 nM; in assay [4] it was 100 to 1000 nM.

For the compound `CNC(=O)Nc1cc(Nc2ncc(C(N)=O)c(NCc3ccccc3)n2)ccc1F` [Example 158, 4-(benzylamino)-2-(4-fluoro-3-(3-methylureido)phenylamino)pyrimidine-5-carboxamide], the IC50 in assay [1] was 10 to 100 nM; in assay [2], 1 to 10 nM; in assay [3], 10 to 100 nM; in assay [4], above 1000 nM.

Turning to `NC(=O)c1cnc(Nc2ccc(N3CCCC3)c(NC(=O)N3CCCC3)c2)nc1NCc1ccccc1` [Example 159, 4-(benzylamino)-2-(4-(pyrrolidin-1-yl)-3-(pyrrolidine-1-carboxamido)phenylamino)pyrimidine-5-carboxamide], the IC50 in assay [1] was 10 to 100 nM; in assay [2], 1 to 10 nM; in assay [3] it was 10 to 100 nM; in assay [4] it was 100 to 1000 nM.

As to `CC(=O)N(c1cccc(Nc2ncc(C(N)=O)c(N[C@H](C)c3ccccc3)n2)c1)C1CC1` [Example 161, (R)-2-(3-(N-cyclopropylacetamido)phenylamino)-4-(1-phenylethylamino)pyrimidine-5-carboxamide], the IC50 lay within 100 to 1000 nM in assay [1], 1 to 10 nM in assay [2], 10 to 100 nM in assay [3] and 100 to 1000 nM in assay [4].

For `COCC(=O)N(c1cccc(Nc2ncc(C(N)=O)c(N[C@H](C)c3ccccc3)n2)c1)C1CC1` [Example 162, (R)-2-(3-(N-cyclopropyl-2-methoxyacetamido)phenylamino)-4-(1-phenylethylamino)pyrimidine-5-carboxamide], the IC50 in assay [1] lay within 10 to 100 nM; in assay [2], 1 to 10 nM; in assay [3] it was 10 to 100 nM; in assay [4] it was 10 to 100 nM.

As to `CNC(=O)Nc1cc(Nc2ncc(C(N)=O)c(NC3CCCC3)n2)ccc1Cl` [Example 166, 2-(4-chloro-3-(3-methylureido)phenylamino)-4-(cyclopentylamino)pyrimidine-5-carboxamide], the IC50 in assay [1], in assay [2], in assay [3] and in assay [4] was 10 to 100 nM each time.

With `NC(=O)c1cnc(Nc2ccc(Cl)c(NC(=O)N3CCCC3)c2)nc1NC1CCCC1` [Example 167, 2-(4-chloro-3-(pyrrolidine-1-carboxamido)phenylamino)-4-(cyclopentylamino)pyrimidine-5-carboxamide], the half-maximal inhibitory concentration (IC50) fell in the range of 10 to 100 nM in assay [1], 10 to 100 nM in assay [2], 100 to 1000 nM in assay [3] and 10 to 100 nM in assay [4].

Consider `NC(=O)c1cnc(Nc2ccc(Cl)c(NC(=O)N3CCCC3)c2)nc1NCc1cccc(Cl)c1` [Example 173, 2-(4-chloro-3-(pyrrolidine-1-carboxamido)phenylamino)-4-(3-chlorobenzylamino)pyrimidine-5-carboxamide], for which the IC50 was 100 to 1000 nM in assay [1], 10 to 100 nM in assay [2], 100 to 1000 nM in assay [3] and above 1000 nM in assay [4].

Turning to `NC(=O)c1cnc(Nc2ccc(Cl)c(NC(=O)N3CCCC3)c2)nc1NCC1CC1` [Example 174, 2-(4-chloro-3-(pyrrolidine-1-carboxamido)phenylamino)-4-(cyclopropylmethylamino)pyrimidine-5-carboxamide], the IC50 in assay [1] fell in the range of 10 to 100 nM; in assay [2] it was 10 to 100 nM; in assay [3] it was 100 to 1000 nM; in assay [4], 10 to 100 nM.

Take `CC[C@H](C)Nc1nc(Nc2ccc(Cl)c(NC(=O)NC)c2)ncc1C(N)=O` [Example 175, (S)-4-(sec-butylamino)-2-(4-chloro-3-(3-methylureido)phenylamino)pyrimidine-5-carboxamide]: the IC50 was 10 to 100 nM in assay [1], 10 to 100 nM in assay [2], 100 to 1000 nM in assay [3] and 100 to 1000 nM in assay [4].

With `CC[C@H](C)Nc1nc(Nc2ccc(Cl)c(NC(=O)N3CCCC3)c2)ncc1C(N)=O` [Example 176, (S)-4-(sec-butylamino)-2-(4-chloro-3-(pyrrolidine-1-carboxamido)phenylamino)pyrimidine-5-carboxamide], the IC50 in assay [1] fell in the range of 10 to 100 nM; in assay [2], 10 to 100 nM; in assay [3] it was 100 to 1000 nM; in assay [4], 10 to 100 nM.

In the case of `CNC(=O)Nc1cc(Nc2ncc(C(N)=O)c(NCC3CC3)n2)ccc1Cl` [Example 178, 2-(4-chloro-3-(3-methylureido)phenylamino)-4-(cyclopropylmethylamino)pyrimidine-5-carboxamide], the IC50 in assay [1] was 10 to 100 nM; in assay [2], 10 to 100 nM; in assay [3], 10 to 100 nM; in assay [4] it was 100 to 1000 nM.

Consider `NC(=O)c1cnc(Nc2cccc(NC(=O)N3CCCC3)c2)nc1NCc1cccc(Cl)c1` [Example 180, 4-(3-chlorobenzylamino)-2-(3-(pyrrolidine-1-carboxamido)phenylamino)pyrimidine-5-carboxamide], for which the IC50 lay in the range of 10 to 100 nM in assay [1], 1 to 10 nM in assay [2], 10 to 100 nM in assay [3] and 10 to 100 nM in assay [4].

`C[C@@H](Nc1nc(Nc2ccc(Cl)c(NC(=O)N3CCOCC3)c2)ncc1C(N)=O)c1ccccc1` [Example 183, (R)—N-(5-(5-carbamoyl-4-(1-phenylethylamino)pyrimidin-2-ylamino)-2-chlorophenyl)morpholine-4-carboxamide]: the IC50 was in the range of 10 to 100 nM in assay [1], 1 to 10 nM in assay [2], 10 to 100 nM in assay [3] and 100 to 1000 nM in assay [4].

Turning to `CC(=O)Nc1cccc(Nc2ncc(C(N)=O)c(Nc3cccc4c3ccn4C)n2)c1` [Example 184, 2-(3-acetamidophenylamino)-4-(1-methyl-1H-indol-4-ylamino)pyrimidine-5-carboxamide], the IC50 in assay [1], in assay [2], in assay [3] and in assay [4] was 1 to 10 nM in each case.

One may read the IC50 as the concentration needed to halve the response being measured.
